Experimental findings from ChEMBL document CHEMBL3351248, “The discovery of potent, selective, and reversible inhibitors of the house dust mite peptidase allergen Der p 1: an innovative approach to the treatment of allergic asthma” (J Med Chem, 2014) are described below.

The source made the active and inactive calls. The rule behind the calls is not given here.

Series [1] is described as follows: Metabolic stability in rat NR8383 cells after 2 hrs by LC-MS-MS analysis. The class given is ADME, cell-based. The conditions noted are these: nr8383, 2 h.
The nature of series [2]: Metabolic stability in rat L2 cells after 2 hrs by LC-MS-MS analysis. The conditions noted are these: l2, 2 h. It is filed as ADME, cell-based.
In the next series the test system is Rattus norvegicus. The series is described as follows: Inhibition of house dust mites allergan-induced eosinophil recruitment in Brown Norway rat model at 25 to 35 ug/kg administered via intratracheal aerosolization 2 hrs prior to allergan challenge measured after 48 hrs by bronchoalveolar lavage method. It is filed as functional, organism-based. The note with it: Lung.

Take `CC(C)[C@H](NC(=O)[C@H](C)NC(=O)[C@H](Cc1ccccc1)NC(=O)c1ccccc1)C(=O)C(=O)NCC(=O)N1CCN(C)CC1`: the Stability entry in series [1] and in series [2] was “Stable” each time. Also, the inhibition result in the series with Rattus norvegicus is “Active”.

Consider `CC(C)[C@H](NC(=O)[C@H](C)NC(=O)[C@@H](NC(=O)c1ccnc2ccccc12)C(C)(C)C)C(=O)C(=O)NCc1ccccc1`, for which the Stability result in series [1] and in series [2] was “Stable” each time. Besides, the inhibition result in the series on Rattus norvegicus is “Active”.

In the case of `CC(C)[C@H](NC(=O)[C@H](C)NC(=O)[C@H](Cc1ccccc1)NC(=O)c1ccccc1)C(=O)C(=O)NCC(=O)N1CCOCC1`, the Stability result in series [1] and in series [2] was “Stable” throughout. Also, the inhibition result with Rattus norvegicus was “Active”.

On to `CC(C)[C@H](NC(=O)[C@H](C)NC(=O)[C@@H](NC(=O)C1CC[N+](C)(C)CC1)C(C)(C)C)C(=O)C(=O)NCc1ccccc1.O=C[O-]`, for which the Stability result in series [1] and in series [2] was “Stable” in each case.

Take `CC(C)[C@H](NC(=O)[C@H](C)NC(=O)[C@@H](NC(=O)c1ccncc1)C(C)(C)C)C(=O)C(=O)NC1CCCCC1`: the Stability entry in series [1] and in series [2] was “Stable” throughout. For the same molecule, the inhibition entry in the series with Rattus norvegicus was “Active”.

In the case of `CC(C)[C@H](NC(=O)[C@H](C)NC(=O)[C@H](Cc1ccccc1)NC(=O)c1cccc2ccccc12)C(=O)C(=O)NCC(=O)N1CCN(C)CC1`, the Stability entry in series [1] and in series [2] was “Stable” throughout. In addition, the inhibition result with Rattus norvegicus was “Active”.

`CC(C)[C@H](NC(=O)[C@H](C)NC(=O)[C@@H](NC(=O)c1ccccc1)C(C)(C)C)C(=O)C(=O)NCc1ccccc1`: the Stability entry in series [1] and in series [2] was “Stable” each time.

For `CC(C)[C@H](NC(=O)[C@H](C)NC(=O)[C@H](Cc1ccccc1)NC(=O)c1ccccc1)C(=O)C(=O)NCC(=O)N1CC[N+](C)(C)CC1.O=C[O-]`, the Stability entry in series [1] and in series [2] was “Stable” each time.
